According to article PMC6857051, “Proliferative regulation of alveolar epithelial type 2 progenitor cells by human Scnn1d gene” (Theranostics, 2019):
Where two headings read alike, the source gives them in different places.

Target: T1, human δ802βγ ENaC (Homo sapiens, UniProt P51168+P51170+P51172)
T1 construct: Bioelectric features of full-length human δ802 epithelial sodium channels (ENaC) in Xenopus oocytes; expressed in transfected cells; host or cells: Xenopus laevis oocytes injected with cRNA (pGEM HE vector)
T1 sequence (P51172 1-802): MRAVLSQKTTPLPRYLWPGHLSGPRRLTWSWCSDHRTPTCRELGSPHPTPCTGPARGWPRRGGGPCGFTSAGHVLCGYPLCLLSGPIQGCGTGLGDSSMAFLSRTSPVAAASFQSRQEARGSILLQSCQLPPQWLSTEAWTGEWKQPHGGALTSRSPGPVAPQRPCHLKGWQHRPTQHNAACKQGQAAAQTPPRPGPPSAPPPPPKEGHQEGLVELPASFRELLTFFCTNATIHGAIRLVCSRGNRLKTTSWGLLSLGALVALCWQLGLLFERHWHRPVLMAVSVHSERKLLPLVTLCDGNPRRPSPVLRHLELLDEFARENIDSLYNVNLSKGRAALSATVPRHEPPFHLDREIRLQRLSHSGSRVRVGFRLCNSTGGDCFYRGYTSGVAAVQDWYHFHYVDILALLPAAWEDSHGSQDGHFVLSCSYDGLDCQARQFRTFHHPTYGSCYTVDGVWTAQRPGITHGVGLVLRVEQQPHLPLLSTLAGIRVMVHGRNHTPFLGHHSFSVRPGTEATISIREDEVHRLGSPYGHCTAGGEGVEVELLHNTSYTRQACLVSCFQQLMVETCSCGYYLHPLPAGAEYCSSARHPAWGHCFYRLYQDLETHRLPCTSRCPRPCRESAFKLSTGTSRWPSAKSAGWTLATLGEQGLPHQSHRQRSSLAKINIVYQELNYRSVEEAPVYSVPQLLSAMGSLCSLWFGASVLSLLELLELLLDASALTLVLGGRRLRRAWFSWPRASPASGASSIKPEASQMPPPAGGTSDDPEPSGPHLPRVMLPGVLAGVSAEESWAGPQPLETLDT
T1 sequence (P51168 1-640): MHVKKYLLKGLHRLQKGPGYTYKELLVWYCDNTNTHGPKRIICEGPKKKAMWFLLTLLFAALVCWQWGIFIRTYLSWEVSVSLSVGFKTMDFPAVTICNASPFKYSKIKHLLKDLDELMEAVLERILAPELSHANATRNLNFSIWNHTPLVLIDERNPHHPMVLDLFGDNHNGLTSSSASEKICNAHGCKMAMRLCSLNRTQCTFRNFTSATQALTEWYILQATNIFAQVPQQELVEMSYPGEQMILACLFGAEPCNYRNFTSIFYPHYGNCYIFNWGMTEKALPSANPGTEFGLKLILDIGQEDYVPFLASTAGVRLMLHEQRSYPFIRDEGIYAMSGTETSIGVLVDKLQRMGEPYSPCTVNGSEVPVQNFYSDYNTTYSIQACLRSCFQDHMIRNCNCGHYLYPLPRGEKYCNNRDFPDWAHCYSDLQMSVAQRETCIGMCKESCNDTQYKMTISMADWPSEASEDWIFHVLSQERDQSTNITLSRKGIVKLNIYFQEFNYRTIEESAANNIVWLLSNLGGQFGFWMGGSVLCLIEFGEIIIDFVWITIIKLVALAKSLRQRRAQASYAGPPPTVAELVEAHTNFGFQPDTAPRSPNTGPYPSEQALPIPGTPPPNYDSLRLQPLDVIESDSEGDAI
T1 sequence (P51170 1-649): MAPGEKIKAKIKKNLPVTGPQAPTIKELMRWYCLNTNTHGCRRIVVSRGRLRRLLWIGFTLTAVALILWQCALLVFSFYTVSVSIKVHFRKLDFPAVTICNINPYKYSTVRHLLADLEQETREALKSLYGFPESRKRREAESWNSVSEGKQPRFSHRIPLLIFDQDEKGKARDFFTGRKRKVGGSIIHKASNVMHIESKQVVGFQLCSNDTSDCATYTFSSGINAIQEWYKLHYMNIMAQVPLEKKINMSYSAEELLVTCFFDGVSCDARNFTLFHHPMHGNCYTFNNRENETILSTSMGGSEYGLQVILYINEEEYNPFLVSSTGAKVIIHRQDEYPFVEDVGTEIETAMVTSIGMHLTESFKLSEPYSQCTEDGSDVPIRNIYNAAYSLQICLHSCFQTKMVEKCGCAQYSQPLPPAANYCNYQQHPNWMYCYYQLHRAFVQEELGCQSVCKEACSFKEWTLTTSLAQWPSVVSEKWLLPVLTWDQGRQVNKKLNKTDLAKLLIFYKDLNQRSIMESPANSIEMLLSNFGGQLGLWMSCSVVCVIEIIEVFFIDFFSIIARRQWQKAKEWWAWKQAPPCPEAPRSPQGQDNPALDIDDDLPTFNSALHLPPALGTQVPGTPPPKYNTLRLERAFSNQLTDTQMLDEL
Test: Two-electrode voltage clamp of δ802βγ-ENaC expressed in Xenopus oocytes
Assay type: cell-based
Protocol: Cloning, in vitro transcription, and heterologous expression of δ802 ENaC and two-electrode voltage clamping assay. δ802 and other ENaC subunits were generated in human ENaC cDNAs cloned into a pGEM HE vector [4], [76]. cRNAs of human α, β, and γ ENaC were prepared as described previously. The stoichiometry of native ENaC complexes is unclear to date. Based on the studies in the last decade, several models have been proposed for αβγ ENaC channels: 1α1β1γ, 2α1β1γ, 3α3β3γ. Based on the EM structure of human αβγ ENaC [35], the currently acceptable model of human αβγ ENaC complexes is heterotrimeric (1α1β1γ). Thus we microinjected δ802:β:γ in a 1:1:1 subunit ratio. Oocytes were surgically removed from appropriately anesthetized adult female Xenopus laevis (Xenopus Express). Briefly, the ovarian tissue was removed from the frog under anesthesia by tricaine-S (Western Chemicals) through a small incision in the lower abdomen. Ovarian lobes were removed and digested in OR-2 calcium-free medium (in mM: 82.5 NaCl, 2.5 KCl, 1.0 MgCl2, 1.0 Na2HPO4, and 10.0 HEPES, pH 7.5) with the addition of 2 mg/ml collagenase (Roche, Indianapolis). Defolliculated oocytes were injected with ENaC cRNAs into the cytosol (25 ng per oocyte in 50 nl of RNase-free water) and incubated in regular OR-2 medium at 18°C. The two-electrode voltage-clamp technique was used to record whole-cell currents 48 h post injection. Oocytes were impaled with two electrodes filled with 3M KCl, having resistance of 0.5 - 2 MΩ. A TEV-200A voltage-clamp amplifier (Dagan) was used to clamp oocytes with concomitant recording of currents. Two reference electrodes were connected to the bath. The continuously perfused bathing solution was ND-96 medium (in mM: 96.0 NaCl, 1.0 MgCl2, 1.8 CaCl2, 2.5 KCl, and 5.0 HEPES, pH 7.5). Whole-cell currents were recorded as previously reported. Experiments were controlled by pCLAMP 10.7 software (Molecular Devices), and currents at -40 mV, -100 mV, and +80 mV were continuously monitored with data recorded at intervals of 10 sec. Data were sampled at the rate of 200 Hz and filtered at 50 Hz.

For N=C(N)NC(=O)c1nc(Cl)c(N)nc1N [amiloride], which IC50 (accumulating doses perfused to oocytes expressing δ802βγ-ENaC, n=17, mean ± s.e.m., SEM, read-out: IC50 value, dose-response curve fitted with the Hill equation) is on record?
Its IC50 is 1690 ± 300 nM.

With Ac-LRGTLPHPLQRLR-NH2 [α-13 peptide] as the molecule, how does the “effect on δ802βγ-ENaC activity” value (300 μM, -100 mV, n=5) read?
The value was “slightly elevated”.

What about the IC50 (oocytes, current at -100 mV, n=3, Chi^2 = 0.77, R^2 = 0.86, legend prints δ802βγ, read-out: IC50, dotted line (for δ802βγ) (Hill equation)) of the same molecule?
The IC50 was 40 ± 70 nM.

B1: plasmin: serine protease of the plasmin(ogen) signal pathway for fibrinolysis (protein, UniProt P00747 20-580; P00747 581-810, looked up)
Plasmin heavy chain A: EPLDDYVNTQGASLFSVTKKQLGAGSIEECAAKCEEDEEFTCRAFQYHSKEQQCVIMAENRKSSIIIRMRDVVLFEKKVYLSECKTGNGKNYRGTMSKTKNGITCQKWSSTSPHRPRFSPATHPSEGLEENYCRNPDNDPQGPWCYTTDPEKRYDYCDILECEEECMHCSGENYDGKISKTMSGLECQAWDSQSPHAHGYIPSKFPNKNLKKNYCRNPDRELRPWCFTTDPNKRWELCDIPRCTTPPPSSGPTYQCLKGTGENYRGNVAVTVSGHTCQHWSAQTPHTHNRTPENFPCKNLDENYCRNPDGKRAPWCHTTNSQVRWEYCKIPSCDSSPVSTEQLAPTAPPELTPVVQDCYHGDGQSYRGTSSTTTTGKKCQSWSSMTPHRHQKTPENYPNAGLTMNYCRNPDADKGPWCFTTDPSVRWEYCNLKKCSGTEASVVAPPPVVLLPDVETPSEEDCMFGNGKGYRGKRATTVTGTPCQDWAAQEPHRHSIFTPETNPRAGLEKNYCRNPDGDVGGPWCYTTNPRKLYDYCDVPQCAAPSFDCGKPQVEPKKCPGR
Plasmin light chain B: VVGGCVAHPHSWPWQVSLRTRFGMHFCGGTLISPEWVLTAAHCLEKSPRPSSYKVILGAHQEVNLEPHVQEIEVSRLFLEPTRKDIALLKLSSPAVITDKVIPACLPSPNYVVADRTECFITGWGETQGTFGAGLLKEAQLPVIENKVCNRYEFLNGRVQSTELCAGHLAGGTDSCQGDSGGPLVCFEKDKYILQGVTSWGLGCARPNKPGVYVRVSRFVTWIEGVMRNN
modifications: Plasmin
notes: serine protease of the plasmin(ogen) signal pathway for fibrinolysis
Which “effect of serine protease incubation on δ802βγ activity” value (oocytes, -100 mV, tc-uPA 10 μg/ml, time course in minutes) does the source give for B1 here?
The value was “activated the δ802βγ activity in minutes”.
